Laboratory results from patent US9695155B2, “Herbicidal substituted pyrimidinyloxy benzene compounds” (E. I. DU PONT DE NEMOURS AND COMPANY, priority 2013, dated 2017).

Key:
corn [1] = assay: Test A preemergence; type: in vivo, Zea mays
Outline: (§1)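 Greenhouse pot test, loam/sand soil. Formulation: non-phytotoxic solvent mix plus surfactant. Pre: directed spray onto soil after sowing. Post: plants at 1–2 leaf, 2–10 cm. Rated visually vs untreated controls at ~10 d, 0 (no effect) to 100 (complete control).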

barnyardgrass [2] = assay: Test A postemergence; type: in vivo, Echinochloa crus-galli; conditions: 0 to 100 scale where 0 is no effect and 100 is complete control
Outline: as §1

corn [3] = assay: Test A postemergence; type: in vivo, Zea mays; conditions: 0 to 100 scale where 0 is no effect and 100 is complete control
Outline: as §1

Italian ryegrass = assay: Test C preemergence; type: in vivo, Lolium multiflorum; conditions: for Ryegrass, Italian plant response rating: preemergence
Outline: (§2)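 Preemergence: seeds sown in a loam soil–sand blend and sprayed with test chemical in a non-phytotoxic solvent mixture containing surfactant. Postemergence: plants at 2 to 18 cm (1- to 4-leaf stage) in peat-based medium, treated with the same formulation. Greenhouse 13 to 15 days, then visual rating 0 (no effect) to 100 (complete control).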

wheat, winter [4] = assay: Test C preemergence; type: in vivo, Triticum aestivum; conditions: for Wheat plant response rating: preemergence
Outline: as §2

morningglory = assay: Test C preemergence; type: in vivo, Ipomoea coccinea; conditions: for Morningglory plant response rating: preemergence
Outline: as §2

soybean = assay: Test C preemergence; type: in vivo, Glycine max; conditions: for Soybean plant response rating: preemergence
Outline: as §2

velvetleaf = assay: Test C preemergence; type: in vivo, Abutilon theophrasti; conditions: for Velvetleaf plant response rating: preemergence
Outline: as §2

wheat, winter [5] = assay: Test C postemergence; type: in vivo, Triticum aestivum
Outline: as §2

galium = assay: Test C postemergence; type: in vivo, Galium aparine
Outline: as §2

yellow nutsedge = assay: Test C postemergence; type: in vivo, Cyperus esculentus
Outline: as §2

ragweed = assay: Test C postemergence; type: in vivo, Ambrosia elatior
Outline: as §2

barnyardgrass [6] = assay: Test C postemergence; type: in vivo, Echinochloa crus-galli; conditions: scale 0 to 100 (0 no effect, 100 complete control)
Outline: as §2

waterhemp = assay: Test C postemergence; type: in vivo, Amaranthus rudis
Outline: as §2

wild oat = assay: Test C postemergence; type: in vivo, Avena fatua
Outline: as §2

[7] = 16 g ai/ha, scale 0 to 100 (0 no effect, 100 complete control)
[8] = 125 g ai/ha, scale 0 (no effect) to 100 (complete control)
[9] = Preemergence, 62 g ai/ha, scale 0 to 100, 0 no effect, 100 complete control
[10] = 16 g ai/ha, postemergence, 0 is no effect, 100 is complete control
[11] = 31 g ai/ha, postemergence, visual rating, scale 0 to 100 (0 no effect, 100 complete control), 13 to 15 days
[12] = 125 g ai/ha, postemergence, visual rating, scale 0 to 100 (0 no effect, 100 complete control)
[13] = Postemergence, 62 g ai/ha, scale 0 to 100 (0 no effect, 100 complete control)

Cc1cnc(Oc2cccc(C#N)c2-n2cc(C(F)(F)F)cn2)nc1 [Compound 180]
Corn plant response rating (0 to 100 scale) (corn [1]; 125 g ai/ha): 60
Corn plant response rating (corn [1]; 500 g ai/ha, 0 to 100 scale where 0 is no effect and 100 is complete control): 90
Barnyardgrass plant response rating (barnyardgrass [2]; 125 g ai/ha): 90
Plant response rating, Barnyardgrass (barnyardgrass [2]; 500 g ai/ha): 100
Corn plant response rating (corn [3]; 125 g ai/ha): 70
Plant response rating, Corn (corn [3]; 500 g ai/ha): 90
Ryegrass, Italian plant response rating (Italian ryegrass; [7]): 5
Ryegrass, Italian plant response rating (Italian ryegrass; [8]): 80
Plant response rating, Ryegrass, Italian (Italian ryegrass; [9]): 50
Wheat plant response rating (wheat, winter [4]; [7]): 0
Wheat plant response rating (wheat, winter [4]; [8]): 50
Plant response rating, Wheat (wheat, winter [4]; [9]): 5
Morningglory plant response rating (morningglory; [7]): 35
Morningglory plant response rating (morningglory; [8]): 100
Plant response rating, Morningglory (morningglory; [9]): 100
Soybean plant response rating (soybean; [7]): 90
Soybean plant response rating (soybean; [8]): 98
Plant response rating, Soybean (soybean; [9]): 98
Velvetleaf plant response rating (velvetleaf; [7]): 75
Velvetleaf plant response rating (velvetleaf; [8]): 100
Plant response rating, Velvetleaf (velvetleaf; [9]): 100
Plant response rating (0 to 100), Wheat (wheat, winter [5]; [10]): 0
Wheat plant response rating (wheat, winter [5]; [11]): 0
Plant response rating, Wheat (wheat, winter [5]; [12]): 5
Plant response rating, Wheat (wheat, winter [5]; [13]): 0
Plant response rating (0 to 100), Galium (galium; [10]): 50
Galium plant response rating (galium; [11]): 55
Plant response rating, Galium (galium; [12]): 90
Plant response rating, Galium (galium; [13]): 60
Plant response rating (0 to 100), Nutsedge, Yellow (yellow nutsedge; [10]): 0
Nutsedge, Yellow plant response rating (yellow nutsedge; [11]): 0
Plant response rating, Nutsedge, Yellow (yellow nutsedge; [12]): 10
Plant response rating, Nutsedge, Yellow (yellow nutsedge; [13]): 10
Plant response rating (0 to 100), Ragweed (ragweed; [10]): 35
Ragweed plant response rating (ragweed; [11]): 65
Plant response rating, Ragweed (ragweed; [12]): 70
Plant response rating, Ragweed (ragweed; [13]): 80
Barnyardgrass plant response rating (barnyardgrass [6]; 31 g ai/ha, postemergence, visual rating, 13 to 15 days): 5
Plant response rating, Barnyardgrass (barnyardgrass [6]; 125 g ai/ha, postemergence, visual rating): 20
Plant response rating, Barnyardgrass (barnyardgrass [6]; Postemergence, 62 g ai/ha): 5
Plant response rating (0 to 100), Waterhemp (waterhemp; [10]): 25
Waterhemp plant response rating (waterhemp; [11]): 60
Plant response rating, Waterhemp (waterhemp; [12]): 75
Plant response rating, Waterhemp (waterhemp; [13]): 70
Plant response rating (0 to 100), Oat, Wild (wild oat; [10]): 5
Oat, Wild plant response rating (wild oat; [11]): 10
Plant response rating, Oat, Wild (wild oat; [12]): 30
Plant response rating, Oat, Wild (wild oat; [13]): 20
